Results on five compounds are retold here after patent publication US20260055097A9, “NRF2 PROTEIN DEGRADERS” (Ganymede Oncology, Inc., priority 2022, published 2026).

In the assay the test system is A549. Put plainly: Cancer cell viability, A549 (CellTiter-Glo). The class given is cell-based. The settings on record: Homo sapiens, 72 h, A549 cells, 3 days, read-out: Cellular IC50 (μM) A549. Here is the method:
Representative Compounds of the Disclosure were tested in A549 (Vendor: ATCC; Cat #CCL-185; Description: lung, carcinoma) and/or LK-2 (Vendor: Riken; Cat #RCB1970; Description: lung, squamous cell carcinoma) cellular viability assays according to the following general protocol. • 1. Observed the cells under microscope. • 2. Aspirated the media and added 5 mL trypsin and incubate for 3 mins. • 3. Added 10 mL fresh media and harvested all the cells in to 15 mL tubes. • 4. Centrifuged the cells at 1000 rpm for 5 mins. • 5. Re-suspended the cells with 11 mL media and took 1 mL to determine the cell number and viability. • 6. Prepared cells suspension at 20 K/mL (A549) or 35 K/mL (LK-2) • 7. Seeded the cells into 96-well plate and incubated for overnight. • 8. […] After 3 days, took out the plates from the incubator and observed the cells under microscope. • 10. Passed a film at the bottom of the plates. • 11. Equilibrated the plate and its contents at room temperature for approximately 30 minutes. • 12. Thawed the CellTiter-Glo® Buffer and equilibrated to room temperature prior to use. • 13. Equilibrated the lyophilized CellTiter-Glo® Substrate to room temperature prior to use. • 14. Transferred 100 ml of CellTiter-Glo® Buffer into the amber bottle containing CellTiter-Glo® Substrate to reconstituted the lyophilized enzyme/substrate mixture. • 15. Mixed by gently vortexing, swirling or inverting the contents to obtain a homogeneous solution. • 16. Added 100 μL CellTiter-Glo® Reagent into each well • 17. Mixed contents for 15 minutes on an orbital shaker to induce cell lysis. • 18. Recorded luminescence with EnSpire machine. • 19. Passed the raw data into the file and analyzed the data with XLfit software.
For orientation: ATP-based viability assays read luminescence as a measure of living cells.
As to `Cc1sc(NC(=O)Cc2cccc(OCCOCCNc3cccc4c3C(=O)N(C3CCC(=O)NC3=O)C4)c2)nc1-c1ccc2c(c1)CCN2C(=O)C1CC1` (centres unmarked) [Cpd. No. 81, N-(4-(1-(cyclopropanecarbonyl)indolin-5-yl)-5-methylthiazol-2-yl)-2-(3-(2-(2-((2-(2,6-dioxopiperidin-3-yl)-3-oxoisoindolin-4-yl)amino)ethoxy)ethoxy)phenyl) acetamide], the IC50 was above 30 µM.

Turning to `Cc1ncccc1C(=O)N1CCc2cc(-c3nc(NC(=O)Cc4cccc(OCCCCCNc5cccc6c5C(=O)N(C5CCC(=O)NC5=O)C6=O)c4)sc3C)ccc21` (centres unmarked) [compound 83, 2-(3-((5-((2-(2,6-dioxopiperidin-3-yl)-1,3-dioxoisoindolin-4-yl)amino)pentyl)oxy)phenyl)-N-(5-methyl-4-(1-(2-methylnicotinoyl)indolin-5-yl)thiazol-2-yl)acetamide], the IC50 is 0.045 µM.

On to `Cc1cnccc1C(=O)N1CCc2cc(-c3nc(NC(=O)Cc4cccc(OCCCCCNc5cccc6c5C(=O)N(C5CCC(=O)NC5=O)C6=O)c4)sc3C)ccc21` (centres unmarked) [compound 84, 2-(3-((5-((2-(2,6-dioxopiperidin-3-yl)-1,3-dioxoisoindolin-4-yl)amino)pentyl)oxy)phenyl)-N-(5-methyl-4-(1-(3-methylisonicotinoyl)indolin-5-yl)thiazol-2-yl)acetamide], for which the IC50 amounted to 0.046 µM.

Take `Cc1ccncc1C(=O)N1CCc2cc(-c3nc(NC(=O)Cc4cccc(OCCCCCNc5cccc6c5C(=O)N(C5CCC(=O)NC5=O)C6=O)c4)sc3C)ccc21` (centres unmarked) [compound 85, 2-(3-((5-((2-(2,6-dioxopiperidin-3-yl)-1,3-dioxoisoindolin-4-yl)amino)pentyl)oxy)phenyl)-N-(5-methyl-4-(1-(4-methylnicotinoyl)indolin-5-yl)thiazol-2-yl)acetamide]: the IC50 came out at 0.047 µM.

As to `Cc1cccnc1C(=O)N1CCc2cc(-c3nc(NC(=O)Cc4cccc(OCCCCCNc5cccc6c5C(=O)N(C5CCC(=O)NC5=O)C6=O)c4)sc3C)ccc21` (centres unmarked) [compound 86, 2-(3-((5-((2-(2,6-dioxopiperidin-3-yl)-1,3-dioxoisoindolin-4-yl)amino)pentyl)oxy)phenyl)-N-(5-methyl-4-(1-(3-methylpicolinoyl)indolin-5-yl)thiazol-2-yl)acetamide], the IC50 came out at 0.072 µM.

The term IC50 denotes the concentration that inhibits the measured activity by half.
